The test system of this experiment is L1210 leukemia ip in BDF1 mice, survival T/C. The experiment can be described thus: NCI In Vivo Anticancer Drug Screen. Data for tumor model L1210 Leukemia (intraperitoneal) in B6D2F1 (BDF1) mice. The note with it: endpoint: mean survival time, higher = longer survival. Put shortly:
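Transplantable tumor model; survival measured in treated vs vehicle control mice. Value = treated/control.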

The mark [1] stands for this setting: dose: 100.0 mg/kg/injection, schedule: Q01DX009 (ip), vehicle: saline.
Where [2] appears, read: dose: 200.0 mg/kg/injection, schedule: Q01DX009 (ip), vehicle: saline.
The mark [3] stands for this setting: dose: 100.0 mg/kg/injection, schedule: Q01DX009 (ip), vehicle: gum acacia.
[4] abbreviates: dose: 100.0 mg/kg/injection, schedule: Q04DX003 (ip), vehicle: saline with Tween-80.
Setting [5] is: dose: 100.0 mg/kg/injection, schedule: Q01DX009 (ip), vehicle: Klucel (hydroxypropylcellulose) (HPC).
[6] abbreviates: dose: 100.0 mg/kg/injection, schedule: Q04DX002 (ip), vehicle: Klucel (hydroxypropylcellulose) (HPC).
Where [7] appears, read: dose: 200.0 mg/kg/injection, schedule: Q04DX002 (ip), vehicle: Klucel (hydroxypropylcellulose) (HPC).
Setting [8] is: dose: 400.0 mg/kg/injection, schedule: Q04DX002 (ip), vehicle: Klucel (hydroxypropylcellulose) (HPC).
The mark [9] stands for this setting: dose: 50.0 mg/kg/injection, schedule: Q01DX009 (ip), vehicle: saline with Tween-80.
[10] abbreviates: dose: 100.0 mg/kg/injection, schedule: Q04DX003 (ip), vehicle: saline.
Where [11] appears, read: dose: 200.0 mg/kg/injection, schedule: Q04DX003 (ip), vehicle: saline.
Where [12] appears, read: dose: 400.0 mg/kg/injection, schedule: Q04DX003 (ip), vehicle: saline.
The mark [13] stands for this setting: dose: 200.0 mg/kg/injection, schedule: Q04DX003 (ip), vehicle: saline with Tween-80.
The mark [14] stands for this setting: dose: 400.0 mg/kg/injection, schedule: Q04DX003 (ip), vehicle: saline with Tween-80.
Where [15] appears, read: dose: 100.0 mg/kg/injection, schedule: Q04DX003 (ip), vehicle: Klucel (hydroxypropylcellulose) (HPC).
The mark [16] stands for this setting: dose: 200.0 mg/kg/injection, schedule: Q01DX009 (ip), vehicle: Klucel (hydroxypropylcellulose) (HPC).
Where [17] appears, read: dose: 200.0 mg/kg/injection, schedule: Q04DX003 (ip), vehicle: Klucel (hydroxypropylcellulose) (HPC).
Setting [18] is: dose: 400.0 mg/kg/injection, schedule: Q01DX009 (ip), vehicle: Klucel (hydroxypropylcellulose) (HPC).
[19] abbreviates: dose: 400.0 mg/kg/injection, schedule: Q04DX003 (ip), vehicle: Klucel (hydroxypropylcellulose) (HPC).

Inconclusive results and toxic doses are left out.

Consider `C[Se]c1ncnc2c1ccn2C1OC(CO)C(O)C1O` (centres undefined), for which the T/C by setting is: (dose: 12.5 mg/kg/injection, schedule: Q01DX005 (ip), vehicle: saline) 104 % of control; (dose: 25.0 mg/kg/injection, schedule: Q01DX005 (ip), vehicle: saline) 106 % of control; (dose: 50.0 mg/kg/injection, schedule: Q01DX005 (ip), vehicle: saline) 102 % of control.

`Cc1cccc(NC(=O)NCCCl)c1C`: the T/C runs as follows: (dose: 100.0 mg/kg/injection, schedule: Q01DX001 (ip), vehicle: carboxymethylcellulose (CMC)) 91 % of control; (dose: 200.0 mg/kg/injection, schedule: Q01DX001 (ip), vehicle: carboxymethylcellulose (CMC)) 91 % of control; (dose: 400.0 mg/kg/injection, schedule: Q01DX001 (ip), vehicle: carboxymethylcellulose (CMC)) 93 % of control.

As to `O=C(N/N=C/c1ccncc1)c1ccccc1`, the T/C reads like this: under setting [1], 112 % of control; under setting [2], 112 % of control.

Turning to `CCc1ccccc1NC(=O)Nc1ccc(Cl)cc1`, the T/C was 96 % of control under setting [3]; 95 % of control (dose: 100.0 mg/kg/injection, schedule: Q04DX003 (ip), vehicle: gum acacia); 96 % of control (dose: 200.0 mg/kg/injection, schedule: Q01DX009 (ip), vehicle: gum acacia); 98 % of control (dose: 200.0 mg/kg/injection, schedule: Q04DX003 (ip), vehicle: gum acacia); 97 % of control (dose: 400.0 mg/kg/injection, schedule: Q01DX009 (ip), vehicle: gum acacia); 97 % of control (dose: 400.0 mg/kg/injection, schedule: Q04DX003 (ip), vehicle: gum acacia).

Take `CC[N+](C)(CC)/N=C(\C)c1ccccc1`: the T/C under setting [4] is 105 % of control.

Consider `C#CCOCCCC(=O)O`, for which the T/C was 91 % of control under setting [1] and 89 % of control under setting [2].

For the compound `c1ccc2c(c1)CCc1ccccc1CN(CCN1CCCC1)C2`, the T/C was 96 % of control (dose: 25.0 mg/kg/injection, schedule: Q01DX009 (ip), vehicle: Klucel (hydroxypropylcellulose) (HPC)) and 99 % of control under setting [5].

As for `CC/C(=C(\c1ccccc1)c1ccc(OCCN(C)C)cc1)c1ccccc1`, the T/C was 95 % of control under setting [6], 92 % of control under setting [7] and 100 % of control under setting [8].

For `CCCCCCCCCCCCC/C=N/Nc1ccc([N+](=O)[O-])cc1[N+](=O)[O-]`, the T/C was 100 % of control under setting [9]; 93 % of control (dose: 100.0 mg/kg/injection, schedule: Q01DX009 (ip), vehicle: saline with Tween-80); 93 % of control (dose: 200.0 mg/kg/injection, schedule: Q01DX009 (ip), vehicle: saline with Tween-80).

Consider `CCOC(=O)CCc1c(C(=O)OCC)[nH]c2ccc(Cl)cc12`, for which the T/C by setting is: under setting [6], 96 % of control; under setting [7], 100 % of control; under setting [8], 96 % of control.

For `Cc1ccc(S(=O)(=O)NC(=O)NCCS)cc1`, the T/C by setting is: under setting [10], 100 % of control; under setting [11], 102 % of control; under setting [12], 96 % of control.

Regarding `CCN(CC)CC(=O)NCC(CC)(CCN(C)C)c1cccc2ccccc12` (centres undefined), the T/C is, setting by setting: under setting [1], 105 % of control; under setting [10], 102 % of control; under setting [2], 97 % of control; under setting [11], 100 % of control.

`Cn1cnc2cc(N=Cc3ccc(N(CCCl)CCCl)cc3Cl)ccc21`: the T/C was 108 % of control under setting [6], 101 % of control under setting [7] and 101 % of control under setting [8].

Take `CN(C)C(=O)Sc1cccc([N+](=O)[O-])c1`: the T/C runs as follows: under setting [4], 109 % of control; under setting [13], 111 % of control; under setting [14], 103 % of control.

In the case of `Cc1cc(C(C)(C)C)cc(C)c1O`, the T/C reads like this: under setting [5], 97 % of control; under setting [15], 95 % of control; under setting [16], 100 % of control; under setting [17], 95 % of control; under setting [18], 97 % of control; under setting [19], 95 % of control.

With `O=C(COc1ccc(Cl)cc1)Nc1cccc(C(F)(F)F)c1`, the T/C is, setting by setting: under setting [5], 96 % of control; under setting [15], 102 % of control; under setting [16], 89 % of control; under setting [17], 93 % of control; under setting [18], 91 % of control; under setting [19], 93 % of control.

With `Nc1cnccc1N1CCN(c2ccc(Cl)c(Cl)c2)CC1`, the T/C under setting [3] was 95 % of control.

`NC(N)=N/N=C\c1ccc2c(c1)OCO2`: the T/C reads like this: (dose: 15.0 mg/kg/injection, schedule: Q01DX Z (ip), vehicle: saline) 98 % of control; (dose: 30.0 mg/kg/injection, schedule: Q01DX Z (ip), vehicle: saline) 88 % of control; (dose: 30.0 mg/kg/injection, schedule: Q01DX Z (oral), vehicle: saline) 92 % of control; (dose: 60.0 mg/kg/injection, schedule: Q01DX Z (ip), vehicle: saline) 92 % of control; (dose: 60.0 mg/kg/injection, schedule: Q01DX Z (oral), vehicle: saline) 94 % of control; (dose: 120.0 mg/kg/injection, schedule: Q01DX Z (oral), vehicle: saline) 97 % of control.

In the case of `Cc1ccc(C(=O)N/N=C/c2ccccc2O)cc1`, the T/C was 89 % of control under setting [6], 92 % of control under setting [7] and 105 % of control under setting [8].

As for `O=C1C(Cl)=C(Cl)C(=O)C2=C1C1c3ccccc3C2c2ccccc21`, the T/C is, setting by setting: under setting [15], 86 % of control; under setting [17], 94 % of control; under setting [19], 89 % of control.

With `CC1(C)CN=C(c2ccc([N+](=O)[O-])cc2)S1`, the T/C reads like this: (dose: 100.0 mg/kg/injection, schedule: Q01DX001 (ip), vehicle: Klucel (hydroxypropylcellulose) (HPC)) 100 % of control; (dose: 200.0 mg/kg/injection, schedule: Q01DX001 (ip), vehicle: Klucel (hydroxypropylcellulose) (HPC)) 102 % of control; (dose: 400.0 mg/kg/injection, schedule: Q01DX001 (ip), vehicle: Klucel (hydroxypropylcellulose) (HPC)) 100 % of control.

On to `C=C(C=O)C1CCC2=C(CCC3(C)C(C(C)CCCC(C)C)CCC23C)C1(C)CCC#N` (centres undefined), for which the T/C is, setting by setting: under setting [4], 93 % of control; under setting [13], 96 % of control; under setting [14], 93 % of control.

For `Cc1nc2c(O)ccc(O)c2nc1C`, the T/C is 100 % of control (dose: 3.12 mg/kg/injection, schedule: Q04DX003 (ip), vehicle: saline with Tween-80); 96 % of control (dose: 6.25 mg/kg/injection, schedule: Q04DX003 (ip), vehicle: saline with Tween-80); 94 % of control (dose: 12.5 mg/kg/injection, schedule: Q01DX009 (ip), vehicle: saline with Tween-80); 100 % of control (dose: 12.5 mg/kg/injection, schedule: Q04DX003 (ip), vehicle: saline with Tween-80); 96 % of control (dose: 25.0 mg/kg/injection, schedule: Q01DX009 (ip), vehicle: saline with Tween-80); 94 % of control under setting [9].

Consider `O=C1OC(=O)C2C1C1(Cl)C(Cl)=C(Cl)C2(Cl)C2C(=O)OC(=O)C21` (centres undefined), for which the T/C is, setting by setting: under setting [1], 94 % of control; under setting [10], 95 % of control; under setting [2], 90 % of control; under setting [11], 95 % of control; (dose: 400.0 mg/kg/injection, schedule: Q01DX009 (ip), vehicle: saline) 91 % of control; under setting [12], 95 % of control.

Consider `O=C(O)C1CCCCC1C(=O)NCc1ccco1` (centres undefined), for which the T/C is, setting by setting: under setting [5], 95 % of control; under setting [16], 96 % of control; under setting [18], 88 % of control.

As to `CCOc1ccc(NC(=O)Nc2ccccc2C(F)(F)F)cc1`, the T/C runs as follows: under setting [5], 89 % of control; under setting [16], 96 % of control; under setting [18], 100 % of control.

`CC(=O)Oc1ccc(/C=N/NC(N)=S)nc1`: the T/C is, setting by setting: (dose: 24.0 mg/kg/injection, schedule: Q03HX024 (ip), vehicle: saline with Tween-80) 212 % of control; (dose: 36.0 mg/kg/injection, schedule: Q03HX024 (ip), vehicle: saline with Tween-80) 339 % of control.

Take `CC(C)N1C(=O)c2cccc3c(Br)ccc(c23)C1=O`: the T/C is 96 % of control under setting [15] and 97 % of control under setting [17].

For the origin of these results see PubChem BioAssay AID248 (DTP/NCI, 2004).
